Results on 12 molecules are retold here after patent US9422261B2, “Heterocyclic resorcinol derivatives, preparation of same and cosmetic uses thereof” (PIERRE FABRE DERMO-COSMETIQUE, priority 2011, dated 2016).

As usually defined, the inhibition is the percentage by which the read-out fell short of the control. As a reminder, the IC50 is the concentration that gives 50% inhibition. As usually defined, the melting point is the temperature, or range, at which the solid turns liquid.

One data set concerns B16-F10 cells. Put plainly: Assay of melanin in B16-F10 cells stimulated with α-MSH. Type of data set: cell-based, murine. To be noted: 72 hours, 0.1 μM α-MSH; for Melanin assay, in strains B16F10 (%): negative value indicates inhibition; for IC50: Mus musculus, B16-F10, read-out: Melanin assay, in strains B16F10, IC50. How it is done: This test measures melanin synthesis using a colorimetric assay on a murine melanoma cell line: B16-F10. […] B16-F10 cells are seeded in 96-well plates in DMEM medium supplemented with fetal calf serum (FCS) and then incubated for 24 hours at 37° C., 5% CO2. […] Each concentration of active agent is tested at least in triplicate. […] The total proteins are assayed in the lysate and the results are expressed in mg melanin/mg proteins: The percentage of activity is calculated as follows: A negative value indicates inhibition, whereas a positive value indicates induction of melanin synthesis. Biological Material: • B16-F10 cell line between […] (murine melanocytes) (ATCC, CRL-6475)

Data set [1] in a line: Antioxidant ability using chemiluminescence (Photochem, Analytik Jena). To be noted: for μg of sample for 1 μg of Trolox: trapping of superoxide anions, chemiluminescence. An excerpt:
This test is used to determine the antioxidant ability of the molecules. It is a method that generates free radicals by a photochemical signal. The intensity of the oxidation is 1000 times greater than that obtained under normal conditions.
Detection is by chemiluminescence. It enables the evaluation of water-soluble and lipid-soluble antioxidant molecules or extracts.
The results are expressed as equivalents of vitamin C or Trolox (6-hydroxy-2,5,7,8-tetramethylchroman-2-carboxylic acid), respectively. The sensitivity is on the order of the nanomole.
The antioxidant activity studied in this test represents the ability to specifically trap superoxide anions by chemiluminescence.
The quantified results are expressed in Trolox equivalents (standard), or “μg of product for 1 μg of Trolox.” This means that a quantity x of sample is needed to obtain activity equivalent to the activity detected for 1 μg of the standard. This represents antioxidant ability relative to a reference, which frees us from concern about the concentration tested.
The superoxide radical (O2°^−) is generated by a photochemical reaction: L+hv(UV)+O2→L*O2→L°^++O2°^− L*: luminol in the excited state L°^+: luminol radical
Some of the superoxide anions are quenched by the antioxidants. The remaining free radicals are quantified by chemiluminescence. L°^++O2°^−→N2+AP*^2−→AP^2−+hv (luminescence) AP*^2−: aminophthalate in the excited state

Data set [2] can be described thus: Solubility in aqueous phase. It is filed as physicochemical. To be noted: aqueous phase / aqueous acidic solution.
The target in data set [3] is tyrosinase monophenol monooxygenase (MPMO) (Agaricus bisporus, UniProt C7FF04). Put plainly: biochemical. How it is done: (§1) The substrate, L-tyrosine, is transformed by the monophenol monooxygenase functional group into L-DOPA, itself transformed by the tyrosinase's polyphenol oxidase functional group into dopaquinone. The latter will auto-oxidize into dopachrome, which is measured by spectrophotometry at 490 nm.
Sequence of tyrosinase monophenol monooxygenase (MPMO) (C7FF04 1-392 limits assumed): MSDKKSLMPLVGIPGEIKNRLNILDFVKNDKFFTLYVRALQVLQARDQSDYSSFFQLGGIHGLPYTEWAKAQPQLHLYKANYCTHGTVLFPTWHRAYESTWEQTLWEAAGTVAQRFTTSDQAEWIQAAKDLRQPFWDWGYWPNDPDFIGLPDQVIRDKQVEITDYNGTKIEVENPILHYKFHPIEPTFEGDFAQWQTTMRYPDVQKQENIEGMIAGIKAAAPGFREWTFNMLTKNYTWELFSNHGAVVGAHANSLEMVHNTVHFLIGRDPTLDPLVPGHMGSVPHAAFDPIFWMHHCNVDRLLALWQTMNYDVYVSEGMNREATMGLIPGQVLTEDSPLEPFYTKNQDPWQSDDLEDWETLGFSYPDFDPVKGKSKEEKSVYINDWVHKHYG
(§2) More precisely, it is global tyrosinase activity (MPMOg) that is measured since ultimately it is dopachrome that is assayed. Thus, the products tested in terms of MPMOg (measurement of activity on PPO and MPMO) can accumulate the inhibition of the 2 functional groups; • inhibiting only the MPMO functional group in the strict sense (transformation of tyrosine into DOPA) in addition to the PPO test, • inhibiting only PPO.

In data set [4] the target is tyrosinase polyphenol oxidase (PPO) (Agaricus bisporus, UniProt C7FF04). The experiment in a line: Tyrosinase inhibition test, polyphenol oxidase (PPO) function, reference molecules. Type of data set: biochemical, mushroom. The conditions noted are these: at 25 μM. How it is done:
as §1, §2

Sequence of tyrosinase polyphenol oxidase (PPO) (C7FF04 1-392 limits assumed): as above

As to `CC(c1ccsc1)c1ccc(O)cc1O` (stereo not drawn) [Compound 4, 4-(1-(thiophene-3-yl)ethyl)benzene-1,3-diol], the “Melanin assay, in strains B16F10 (%)” value in the data set with B16-F10 cells (at 20 μM) is recorded as −52% at 20 μM. Moreover, in data set [1], the “μg of sample for 1 μg of Trolox” value is on record as 15.4 μg of sample for 1 μg of Trolox. With `CC(c1ccccc1)c1ccc(O)cc1O` (stereo not drawn) [4-(1-phenylethyl)benzene-1,3-diol, reference compound], the “Solubility in aqueous phase” value in data set [2] is on record as “insoluble in aqueous phase”. As to `CCCC(c1cccs1)c1ccc(O)cc1O` (stereo not drawn) [Compound 31, 4-(1-(thiophene-2-yl)butyl)benzene-1,3-diol], the “Melanin assay, in strains B16F10 (%)” value in the data set with B16-F10 cells (at 10 μM) is given as −50% at 10 μM. For the molecule `OC[C@H]1O[C@@H](Oc2ccc(O)cc2)[C@H](O)[C@@H](O)[C@@H]1O` [Arbutin, reference compound], the inhibition at 88 µM in data set [3] (read-out: % inhibition (MPMO)) stood at 57%. For the same molecule, in the data set on B16-F10 cells, the IC50 came to 158 µM. For the molecule `O=C(O)CCCC[C@@H]1CCSS1` (racemic) [Lipoic acid, reference compound], the “μg of sample for 1 μg of Trolox (scale used to interpret the results)” value in data set [1] (reference products of the interpretation scale) is listed as “NEGATIVE”. As for `O=c1cc(CO)occ1O` [Kojic acid, reference compound], in the data set with B16-F10 cells, the IC50 was 2400 µM. Consider `CC(c1cccs1)c1ccc(O)cc1O` (stereo not drawn) [Compound 1, 4-(1-(thiophene-2-yl)ethyl)benzene-1,3-diol], for which, in the data set on B16-F10 cells (at 20 μM), the “Melanin assay, in strains B16F10 (%)” value is on record as −50% at 20 μM. Besides, in data set [1], the “μg of sample for 1 μg of Trolox” value is 13.7 μg of sample for 1 μg of Trolox.

`N[C@@H](CCC(=O)N[C@@H](CS)C(=O)NCC(=O)O)C(=O)O` [Reduced glutathione]: the “% inhibition (PPO)” value in data set [4] is given as 55%. Also, the IC50 in data set [3] (read-out: IC50 (MPMO), reference molecules for the test, MPMO) was 1 to 2 µM.

For `CC(c1nccs1)c1ccc(O)cc1O` (stereo not drawn) [Compound 5, 4-(1-(thiazol-2-yl)ethyl)benzene-1,3-diol], in the data set with B16-F10 cells (at 20 μM), the “Melanin assay, in strains B16F10 (%)” value is −33% at 20 μM. In data set [1], the “μg of sample for 1 μg of Trolox” value is reported as 11.7 μg of sample for 1 μg of Trolox. In turn, `CC(C)CC(c1cccs1)c1ccc(O)cc1O` (stereo not drawn) [Compound 28, 4-(3-methyl-1-(thiophene-2-yl)butyl)benzene-1,3-diol] returned a melting point of 89.9 °C. In the data set on B16-F10 cells (at 10 μM), the “Melanin assay, in strains B16F10 (%)” value is given as −52% at 10 μM. With `CC(c1ccccn1)c1ccc(O)cc1O` (stereo not drawn) [Compound 2, 4-(1-(pyridin-2-yl)ethyl)benzene-1,3-diol], the “Melanin assay, in strains B16F10 (%)” value with B16-F10 cells (at 20 μM) is −26% at 20 μM. The “μg of sample for 1 μg of Trolox” value in data set [1] was 10.4 μg of sample for 1 μg of Trolox. For the molecule `CC(c1cccnc1)c1ccc(O)cc1O` (stereo not drawn) [Compound 3, 4-(1-(pyridin-3-yl)ethyl)benzene-1,3-diol], in the data set with B16-F10 cells (at 20 μM), the “Melanin assay, in strains B16F10 (%)” value is on record as −52% at 20 μM. The “μg of sample for 1 μg of Trolox” value in data set [1] is 8.7 μg of sample for 1 μg of Trolox. Further, the “Solubility in aqueous phase” value in data set [2] was “dissolve the active ingredient in aqueous acidic solution”.
